# From patent US12492188B2, “1H-benzo[D]imidazole derivatives as TLR9 inhibitors for the treatment of fibrosis” (BRISTOL-MYERS SQUIBB COMPANY, priority 2020, dated 2025)
# Read-outs that look alike come from different tables or passages of the source.
# Assays:
# Format in all cases: cell-based
# human TLR9 = biological target: T1, human TLR9 (Homo sapiens, UniProt Q9NR96); experiment: TLR9 inhibition reporter assay (HEK-Blue cells, secreted embryonic alkaline phosphatase reporter)
# T1 construct: host or cells: HEK-Blue cells (HEK293-derived reporter line)
# T1 sequence (Q9NR96 26-1032): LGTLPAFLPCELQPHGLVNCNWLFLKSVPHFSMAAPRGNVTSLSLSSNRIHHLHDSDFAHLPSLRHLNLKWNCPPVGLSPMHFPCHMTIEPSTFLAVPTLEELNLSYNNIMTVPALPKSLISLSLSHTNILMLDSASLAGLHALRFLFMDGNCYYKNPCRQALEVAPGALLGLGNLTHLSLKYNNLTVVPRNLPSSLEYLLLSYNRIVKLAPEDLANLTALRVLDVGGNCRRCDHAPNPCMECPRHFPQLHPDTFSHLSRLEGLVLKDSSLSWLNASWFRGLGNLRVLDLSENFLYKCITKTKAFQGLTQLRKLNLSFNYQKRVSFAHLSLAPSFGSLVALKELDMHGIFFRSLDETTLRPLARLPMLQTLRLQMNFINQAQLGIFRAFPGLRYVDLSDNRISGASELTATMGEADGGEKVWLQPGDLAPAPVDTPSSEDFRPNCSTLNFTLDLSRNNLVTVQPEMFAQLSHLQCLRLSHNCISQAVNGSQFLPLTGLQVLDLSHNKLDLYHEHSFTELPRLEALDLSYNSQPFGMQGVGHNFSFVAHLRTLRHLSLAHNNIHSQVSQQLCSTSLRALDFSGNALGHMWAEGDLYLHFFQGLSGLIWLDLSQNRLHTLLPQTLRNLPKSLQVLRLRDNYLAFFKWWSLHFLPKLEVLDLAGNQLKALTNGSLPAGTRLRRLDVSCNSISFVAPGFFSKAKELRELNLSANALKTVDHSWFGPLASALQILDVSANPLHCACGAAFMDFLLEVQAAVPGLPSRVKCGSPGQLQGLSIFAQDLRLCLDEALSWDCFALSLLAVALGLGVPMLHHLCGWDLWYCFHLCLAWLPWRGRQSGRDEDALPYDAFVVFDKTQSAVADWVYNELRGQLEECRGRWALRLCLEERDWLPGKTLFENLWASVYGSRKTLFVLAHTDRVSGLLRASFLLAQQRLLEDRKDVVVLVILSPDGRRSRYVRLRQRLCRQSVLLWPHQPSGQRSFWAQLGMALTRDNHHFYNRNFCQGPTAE
# In short: (§1)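 Inhibitors are tested in dose response (0.05 nM–50 μM) on HEK-Blue reporter cells expressing human TLR7, TLR8 or TLR9. After 30 min at room temperature, each line is stimulated with its own agonist (gardiquimod 7.5 μM, R848 15.9 μM or ODN2006 5 nM, final) and SEAP is measured 22 h later.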
# human TLR7 = biological target: T2, human TLR7 (Homo sapiens, UniProt Q9NYK1); experiment: TLR7 inhibition reporter assay (HEK-Blue cells, secreted embryonic alkaline phosphatase reporter); conditions: HEK-Blue cells overexpressing human TLR7, stimulated with gardiquimod 7.5 μM; read-out: TLR 7 IC50
# T2 construct: host or cells: HEK-Blue cells (HEK293-derived reporter line)
# T2 sequence (Q9NYK1 27-1049): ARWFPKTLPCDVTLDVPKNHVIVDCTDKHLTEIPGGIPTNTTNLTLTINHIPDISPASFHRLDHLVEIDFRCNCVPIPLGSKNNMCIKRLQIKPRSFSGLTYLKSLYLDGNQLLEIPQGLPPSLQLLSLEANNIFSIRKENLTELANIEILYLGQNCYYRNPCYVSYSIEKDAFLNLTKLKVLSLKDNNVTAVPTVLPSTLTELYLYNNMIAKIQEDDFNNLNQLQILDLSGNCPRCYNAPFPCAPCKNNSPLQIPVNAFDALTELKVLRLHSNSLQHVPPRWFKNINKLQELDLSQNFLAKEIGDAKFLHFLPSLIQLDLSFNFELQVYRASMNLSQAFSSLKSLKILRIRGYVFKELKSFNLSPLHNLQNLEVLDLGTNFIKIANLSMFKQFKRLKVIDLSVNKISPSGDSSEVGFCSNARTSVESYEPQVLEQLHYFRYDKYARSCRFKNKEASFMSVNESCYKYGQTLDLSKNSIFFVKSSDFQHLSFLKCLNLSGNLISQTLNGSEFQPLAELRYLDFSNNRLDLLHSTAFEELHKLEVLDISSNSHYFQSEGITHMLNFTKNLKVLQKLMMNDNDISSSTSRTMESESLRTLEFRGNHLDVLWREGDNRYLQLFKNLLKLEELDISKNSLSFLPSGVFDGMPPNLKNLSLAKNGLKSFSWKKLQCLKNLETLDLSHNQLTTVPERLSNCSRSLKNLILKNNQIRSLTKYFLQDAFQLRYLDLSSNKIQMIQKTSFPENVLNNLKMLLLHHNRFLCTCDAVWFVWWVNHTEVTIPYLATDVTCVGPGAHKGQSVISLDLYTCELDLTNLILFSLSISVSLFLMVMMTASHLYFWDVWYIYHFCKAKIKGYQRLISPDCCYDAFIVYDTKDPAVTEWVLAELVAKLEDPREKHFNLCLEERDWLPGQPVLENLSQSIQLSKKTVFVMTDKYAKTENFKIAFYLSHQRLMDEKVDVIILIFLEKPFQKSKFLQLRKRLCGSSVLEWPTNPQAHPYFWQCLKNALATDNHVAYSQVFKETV
# In short: as §1
# human TLR8 = biological target: T3, human TLR8 (Homo sapiens, UniProt Q9NR97); experiment: TLR8 inhibition reporter assay (HEK-Blue cells, secreted embryonic alkaline phosphatase reporter); conditions: HEK-Blue cells overexpressing human TLR8, stimulated with R848 15.9 μM; read-out: TLR 8 IC50
# T3 construct: host or cells: HEK-Blue cells (HEK293-derived reporter line)
# T3 sequence (Q9NR97 27-1041): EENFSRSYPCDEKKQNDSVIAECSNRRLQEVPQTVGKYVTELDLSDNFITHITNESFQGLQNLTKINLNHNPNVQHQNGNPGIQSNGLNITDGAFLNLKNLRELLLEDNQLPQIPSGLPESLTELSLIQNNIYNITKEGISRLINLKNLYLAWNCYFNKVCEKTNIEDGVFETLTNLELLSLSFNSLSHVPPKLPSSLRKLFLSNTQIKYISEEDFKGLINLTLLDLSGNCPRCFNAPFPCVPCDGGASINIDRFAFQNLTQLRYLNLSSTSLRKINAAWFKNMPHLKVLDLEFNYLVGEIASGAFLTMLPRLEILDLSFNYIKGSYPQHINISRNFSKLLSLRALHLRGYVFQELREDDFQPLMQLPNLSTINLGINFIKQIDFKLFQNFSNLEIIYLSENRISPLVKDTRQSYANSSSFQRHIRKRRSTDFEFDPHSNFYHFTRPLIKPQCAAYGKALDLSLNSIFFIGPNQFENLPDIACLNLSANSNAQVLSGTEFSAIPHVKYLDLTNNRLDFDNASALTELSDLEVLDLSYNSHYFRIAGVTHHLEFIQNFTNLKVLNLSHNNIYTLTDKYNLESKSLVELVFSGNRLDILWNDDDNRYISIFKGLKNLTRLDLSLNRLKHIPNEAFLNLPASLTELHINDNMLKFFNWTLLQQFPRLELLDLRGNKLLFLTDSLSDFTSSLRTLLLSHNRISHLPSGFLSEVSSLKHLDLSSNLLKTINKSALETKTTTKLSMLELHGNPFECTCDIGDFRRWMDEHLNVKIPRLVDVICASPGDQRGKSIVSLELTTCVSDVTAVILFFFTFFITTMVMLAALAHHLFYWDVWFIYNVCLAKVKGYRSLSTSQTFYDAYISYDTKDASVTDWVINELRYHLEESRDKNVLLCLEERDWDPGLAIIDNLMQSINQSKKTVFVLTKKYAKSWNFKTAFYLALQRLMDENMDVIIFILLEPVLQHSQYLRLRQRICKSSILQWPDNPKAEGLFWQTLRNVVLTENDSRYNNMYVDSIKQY
# In short: as §1
# [1] = HEK-Blue cells overexpressing human TLR9, stimulated with ODN2006 5 nM, read-out: TLR 9 IC50
# [2] = HEK-Blue human TLR9 reporter cells
# [3] = HEK-Blue cells overexpressing human TLR9, stimulated with ODN2006 5 nM, 22 hour incubation, reporter readout
Structure (SMILES),IC50 (human TLR9; [1]) [µM],IC50 (human TLR9; [2]) [µM],IC50 (human TLR7) [µM],IC50 (human TLR8) [µM],IC50 (human TLR9; [3]) [µM],IC50 (human TLR9) [µM]
"COCCN1CCCC(N2CCC(c3cc(C)c4nc(-c5ccc(S(C)(=O)=O)cc5)n(C)c4c3)CC2)CC1 (single isomer, unassigned) [Example 309, 6-(1-(1-(2-methoxyethyl)azepan-4-yl)piperidin-4-yl)-1,4-dimethyl-2-(4-(methylsulfonyl)phenyl)-1H-benzo[d]imidazole]",0.034,0.034,1.9,> 50,,
"Cc1cc(-c2ccc(CN3CC4(CN(C)C4)C3)cc2)cc2c1nc(-c1ccc(S(C)(=O)=O)cc1)n2C [Example 370, 1,4-dimethyl-6-(4-((6-methyl-2,6-diazaspiro[3.3]heptan-2-yl)methyl)phenyl)-2-(4-(methylsulfonyl)phenyl)-1H-benzo[d]imidazole]",,,1.8,4.5,0.056,
"Cn1c(-c2ccc(S(C)(=O)=O)cc2)nc2cc(F)c(C3CCN(C4CCN(C5COC5)CC4)CC3)cc21 [Example 225, 5-fluoro-1-methyl-2-(4-(methylsulfonyl)phenyl)-6-(1′-(oxetan-3-yl)-[1,4′-bipiperidin]-4-yl)-1H-benzo[d]imidazole]",5.35,,> 50,> 50,,5.4
"Cn1c(-c2ccc(S(C)(=O)=O)cc2)nc2ccc(C3CCN(C4CC5CCC(C4)N5C4CCC4)CC3)c(F)c21 (single isomer, unassigned) [Example 270, 6-(1-(8-cyclobutyl-8-azabicyclo[3.2.1]octan-3-yl)piperidin-4-yl)-7-fluoro-1-methyl-2-(4-(methylsulfonyl)phenyl)-1H-benzo[d]imidazole]",0.065,,17.7,> 50,,0.065
"CN(C)C1CCN(Cc2ccc(-c3ccc4nc(-c5ccc(S(C)(=O)=O)cc5F)n(C)c4c3)cc2)CC1 [Example 380, 1-(4-(2-(2-fluoro-4-(methylsulfonyl)phenyl)-1-methyl-1H-benzo[d]imidazol-6-yl)benzyl)-N,N-dimethylpiperidin-4-amine]",0.174,,1.3,0.3,0.174,
"CC(C)N1C2CCC1CC(N1CCC(c3cc(F)c4c(c3)nc(-c3ccc(S(C)(=O)=O)cc3)n4C)CC1)C2 (single isomer, unassigned) [Example 93, 7-fluoro-5-(1-(8-isopropyl-8-azabicyclo[3.2.1]octan-3-yl)piperidin-4-yl)-1-methyl-2-(4-(methylsulfonyl)phenyl)-1H-benzo[d]imidazole]",,,> 50,> 50,0.65,
"Cc1cc(-c2ccc(N3CCN(C4CCC4)CC3)cc2)cc2c1nc(-c1ccc(S(C)(=O)=O)cc1)n2C [Example 174, 6-(4-(4-cyclobutylpiperazin-1-yl)phenyl)-1,4-dimethyl-2-(4-(methylsulfonyl)phenyl)-1H-benzo[d]imidazole]",0.48,,> 50,> 50,,0.48
"Cc1cc(C2CCN(C3CCN(CC(C)C)CC3)CC2)cc2c1nc(-c1ccc(S(C)(=O)=O)cc1)n2C [Example 52, 6-(1′-isobutyl-[1,4′-bipiperidin]-4-yl)-1,4-dimethyl-2-(4-(methylsulfonyl)phenyl)-1H-benzo[d]imidazole]",0.129,,4.8,> 50,0.13,
"CC(C)CN1CCCC(N2CCC(c3ccc4nc(-c5ccc(S(C)(=O)=O)cc5)n(C)c4c3F)CC2)CC1 (centres unmarked) [Example 311, 7-fluoro-6-(1-(1-isobutylazepan-4-yl)piperidin-4-yl)-1-methyl-2-(4-(methylsulfonyl)phenyl)-1H-benzo[d]imidazole]",0.072,0.072,> 50,> 50,,
"COc1ccc(-c2nc3c(C)cc(C4CCN(C5CC6CCC(C5)N6CC(C)C)CC4)cc3n2C)cc1OC (single isomer, unassigned) [Example 18, 2-(3,4-dimethoxyphenyl)-6-(1-(8-isobutyl-8-azabicyclo[3.2.1]octan-3-yl)piperidin-4-yl)-1,4-dimethyl-1H-benzo[d]imidazole]",,,7.7,> 50,0.029,
"COc1ccc(-c2nc3c(C)cc(C4CCN(C5CC6(C5)CN(C(C)C)C6)CC4)cc3n2C)cc1OC [Example 16, 2-(3,4-dimethoxyphenyl)-6-(1-(2-isopropyl-2-azaspiro[3.3]heptan-6-yl)piperidin-4-yl)-1,4-dimethyl-1H-benzo[d]imidazole tris(2,2,2-trifluoroacetate)]",0.0104,,10,> 50,0.1,
